Assay results reported in patent US20140357718A1 (priority 2013, published 2014).
Read-outs that look alike come from different tables or passages of the source.

Columns and labels:
Assay type in all cases: cell-based
[1] = tested on: Lactobacillus crispatus; test: Bacterial growth in pure culture with test composition (turbidity 660 nm); settings: L. crispatus, 23 h, 40° C., anaerobic
[2] = tested on: Clostridium perfringens; settings: C. perfringens, 23 h, 40° C., anaerobic
[3] = tested on: Campylobacter jejuni; test: Bacterial growth in pure culture with test composition (SYBR Green fluorescence); settings: C. jejuni, 19 h, 40° C., anaerobic
[4] = tested on: Escherichia coli; test: Bacterial growth in pure culture with test composition (turbidity 660 nm); settings: E. coli, 9 h, 40° C., anaerobic
[5] = free pH, 0.01% (w/v) composition
[6] = free pH, 0.1% (w/v) composition
[7] = free pH, 0.3% (w/v) composition
[8] = pH 6.5 (neutralised with NaOH), 0.01% (w/v) composition
[9] = pH 6.5 (neutralised with NaOH), 0.1% (w/v) composition
[10] = pH 6.5 (neutralised with NaOH), 0.3% (w/v) composition

## O=CO [Composition C, formic acid]
[1]; [5]
  Growth of Indicator Bacteria (% of Growth Control): 95%
[1]; [6]
  Growth of Indicator Bacteria (% of Growth Control): 90%
[1]; [7]
  Growth of Indicator Bacteria (% of Growth Control): 75%
[1]; [8]
  Growth of Indicator Bacteria (% of Growth Control): 120%
[1]; [9]
  Growth of Indicator Bacteria (% of Growth Control): 115%
[1]; [10]
  Growth of Indicator Bacteria (% of Growth Control): 95%
[2]; [5]
  Growth of Indicator Bacteria (% of Growth Control): 75%
[2]; [6]
  Growth of Indicator Bacteria (% of Growth Control): 20%
[2]; [7]
  Growth of Indicator Bacteria (% of Growth Control): 15%
[2]; [8]
  Growth of Indicator Bacteria (% of Growth Control): 100%
[2]; [9]
  Growth of Indicator Bacteria (% of Growth Control): 65%
[2]; [10]
  Growth of Indicator Bacteria (% of Growth Control): 60%
[3]; [5]
  Growth of Indicator Bacteria (% of Growth Control): 170%
[3]; [6]
  Growth of Indicator Bacteria (% of Growth Control): 20%
[3]; [7]
  Growth of Indicator Bacteria (% of Growth Control): 10%
[3]; [8]
  Growth of Indicator Bacteria (% of Growth Control): 170%
[3]; [9]
  Growth of Indicator Bacteria (% of Growth Control): 115%
[3]; [10]
  Growth of Indicator Bacteria (% of Growth Control): 65%
[4]; [5]
  Growth of Indicator Bacteria (% of Growth Control): 80%
[4]; [6]
  Growth of Indicator Bacteria (% of Growth Control): 20%
[4]; [7]
  Growth of Indicator Bacteria (% of Growth Control): 15%
[4]; [8]
  Growth of Indicator Bacteria (% of Growth Control): 110%
[4]; [10]
  Growth of Indicator Bacteria (% of Growth Control): 45%
